Experiments:
MCAO rats [1] = assay: Infarct volume measurement by TTC staining; assay type: in vivo, Sprague-Dawley rats; conditions: oral once daily 14 days, compared with model group
MCAO rats [2] = assay: Neurological deficit score (Longa's five-point scale) 24 h after reperfusion; conditions: oral once daily 14 days, compared with model group
Description: (§1) 0.5% CMC-Na was used as vehicle with an equal volume (100 g/ml body-weight) for each rat. Treatments were administered once daily by oral gavage for 14 consecutive days. After the last administration, rats were fasted for 12 h, MCAO surgery was performed according to the reference by H Nagasawa and K Kogure. […] After 2 h of sustained MCAO, reperfusion was conducted, and the rats in sham operation group received the same surgical procedures except that the occluding monofilament was not inserted.
24 h after reperfusion, all rats were tested for sensorimotor ability according to the Longa's five-point scale (0, no neurologic deficit; 1, a slight forelimb flexion; 2 severe forelimb flexion and decreased resistance to lateral push; 3, spontaneous rotation or contralateral rotation to the affected side; 4, consciousness reduced and unable or difficult to move; 5, no response to stimulation).

MCAO rats [3] = assay: Brain histopathology by HE staining; conditions: oral once daily 14 days
Description: as §1
For brain histology, the tissue was fixed in 4% paraformaldehyde for 24 h, then the brain slices were rinsed, dehydrate, paraffin embedded, sectioned, and stained with hematoxylin-eosin (HE). The histopathological changes were observed under optical microscope.

Compound	Cerebral infarction volume ratio (TTC staining) (MCAO rats [1])	Neurological deficit score (MCAO rats [2])	Histopathological changes in brain tissue (HE staining) (MCAO rats [3])
CC(/C=C/C=C(\C)C(=O)O[C@@H]1O[C@H](CO[C@@H]2O[C@H](CO)[C@@H](O)[C@H](O)[C@H]2O)[C@@H](O)[C@H](O)[C@H]1O)=C\C=C\C=C(C)\C=C\C=C(/C)C(=O)O[C@@H]1O[C@H](CO[C@@H]2O[C@H](CO)[C@@H](O)[C@H](O)[C@H]2O)[C@@H](O)[C@H](O)[C@H]1O [A1, crocin I]	reduce the infarction volume significantly	significant effects	protective effect on brain injury
C/C=C\c1cc(OC)c(OC)cc1OC [B1, β-asarone]	reduce the infarction volume significantly	significant effects	protective effect on brain injury
